Results reported in patent publication US20200148718A1, “PHARMACEUTICAL-GRADE 20-HYDROXYECDYSONE EXTRACT, USE OF SAME AND PREPARATION THEREOF” (BIOPHYTIS, priority 2017, published 2020).

Legend:
[1] = Phase I clinical trial, single administrations (SAD), plasma pharmacokinetics; format: in vivo, humans; settings: SAD cohorts, FIG. 3
Protocol: In the context of a phase I clinical trial, the plasma concentrations of BIO101 were measured after single administrations (SAD) of 100, 350, 700 and 1400 mg/day in individuals on an empty stomach. Repeated administrations (MAD) over 14 days were then carried out with a single daily dose of 350 mg or with two daily doses (morning and evening) of 350 mg and 450 mg. These administrations of BIO101 to various cohorts of volunteers (n=6) allowed to determine the main pharmacokinetic parameters of BIO101: Cmax (maximum plasma concentration of BIO101 after single or repeated), Cmin (minimum plasma concentration of BIO101 after single or repeated administration), Tmax (time necessary to reach the maximum plasma concentration of BIO101 after single or repeated administration), and AUC (Area under curve) synonymous with level of plasma exposure.
The average profile of the cohorts of the SAD is presented in FIG. 3 in which Y are young volunteers and O are volunteers, the age of which is between 65 and 85 years. […] The half-life of the 20E is approximately 3-4 hours.

[2] = pure molecule, data of the literature; cited from earlier work
[3] = test system: nuclear receptors of the androgens or of the oestrogens; settings: Lapenna et al., 2015; cited from earlier work
[4] = Bioavailability with respect to 20E; settings: relative to 20E

SMILES: CC(C)(O)CC[C@@H](O)[C@](C)(O)[C@H]1CC[C@@]2(O)C3=CC(=O)[C@@H]4C[C@@H](O)[C@@H](O)C[C@]4(C)[C@H]3CC[C@]12C [20E, 20-hydroxyecdysone]
- Bioavailability [1]: low bioavailability
- Elimination of the active ingredient from plasma [1]: almost totally disappears after 24 hours
- Half-life [1]: 3 to 4 h
- Cytotoxicity [2]: slightly cytotoxic

SMILES: CC12CC(O)C(O)CC1C(=O)C=C1C2CCC2(C)C(O)CCC12O (centres unmarked) [dihydrorubrosterone, Dihydrorubrosterone]
- Interaction with nuclear receptors of the androgens or of the oestrogens [3]: capable of interacting

SMILES: CC(=O)[C@H]1CC[C@@]2(O)C3=CC(=O)[C@@H]4C[C@@H](O)[C@@H](O)C[C@]4(C)[C@H]3CC[C@]12C [poststerone, Poststerone]
- Interaction with nuclear receptors of the androgens or of the oestrogens [3]: capable of interacting
- Bioavailability with respect to 20E [4]: approximately twenty times better

SMILES: C[C@]12C[C@H](O)[C@H](O)C[C@H]1C(=O)C=C1[C@@H]2CC[C@]2(C)C(=O)CC[C@@]12O [rubrosterone, Rubrosterone]
- Interaction with nuclear receptors of the androgens or of the oestrogens [3]: capable of interacting
